Measurements as given in article PMC12837263, “β,β-Dimethylacrylalkannin Restores Colistin Efficacy Against mcr- and TCS-Mediated Resistant Gram-Negative Bacteria via Membrane Disturbance” (Antibiotics, 2025).

Legend:
Type in all cases: cell-based
[1] = system: K. pneumoniae 667; assay: Bacterial growth curves; details: β,β-Dim 4 µg/mL, colistin 0.5 µg/mL, alone or combined; 24 h
Procedure: Overnight cultures of K. pneumoniae 667 and E. coli 13f4 were diluted to 10^6 CFU/mL; then, β,β-Dim (4 μg/mL), colistin (0.5 or 2 μg/mL), and their combination were co-incubated with bacterial suspensions in a 96-well plate. OD600 values were monitored hourly over a 24 h period.

[2] = system: K. pneumoniae 109(mcr-8); assay: Checkerboard assay (MIC, FICI); details: 109
Procedure: (§1) The FICI of β,β-Dim–colistin combination was determined by a checkerboard assay. Briefly, two-fold serial dilutions of β,β-Dim and colistin were prepared in a 96-well plate. After incubation at 37 °C for 18 h with bacterial suspension (10^6 CFU/mL), OD600 values were measured. FICI = (MICβ,β-Dim in combination/MICβ,β-Dim) + (MICcolistin in combination/MICcolistin). The synergistic effect of β,β-Dim with other antibiotics was measured in the same way. Synergy was considered to be an FICI ≤ 0.5.

[3] = system: K. pneumoniae 197(mcr-1、blaNDM); assay: Checkerboard assay (MIC, FICI); details: 197
Procedure: as §1

[4] = system: K. pneumoniae 29(mcr-8、pmrB、blaNDM); assay: Checkerboard assay (MIC, FICI); details: 29
Procedure: as §1

[5] = system: P. aeruginosa PAO1; assay: Checkerboard assay (MIC, FICI); details: PAO1
Procedure: as §1

[6] = system: S. Typhimurium 9891(mcr-1); assay: Checkerboard assay (MIC, FICI); details: 9891
Procedure: as §1

[7] = system: K. pneumoniae 20(mcr-1); assay: Checkerboard assay (MIC, FICI); details: 20(mcr-1)
Procedure: as §1

[8] = system: E. coli BW25113-184-mcr-1; assay: Checkerboard assay (MIC, FICI); details: BW25113-184-mcr-1
Procedure: as §1

[9] = system: K. pneumoniae ATCC 13883; assay: Checkerboard assay (MIC, FICI); details: 13883
Procedure: as §1

[10] = system: E. coli ATCC 25922; assay: Checkerboard assay (MIC, FICI); details: 25922
Procedure: as §1

[11] = system: E. coli BW25113-184; assay: Checkerboard assay (MIC, FICI); details: BW25113-184
Procedure: as §1

[12] = system: K. pneumoniae 126(mcr-8); assay: Checkerboard assay (MIC, FICI); details: 126
Procedure: as §1

[13] = system: A. baumannii ATCC 19606; assay: Checkerboard assay (MIC, FICI); details: 19606
Procedure: as §1

[14] = system: K. pneumoniae 251(mgrB、phoP、pmrA、blaKPC); assay: Checkerboard assay (MIC, FICI); details: 251
Procedure: as §1

[15] = system: E. coli ZJ71(mcr-1); assay: Checkerboard assay (MIC, FICI); details: ZJ71
Procedure: as §1

[16] = system: K. pneumoniae 650(mgrB、phoP、pmrA、blaKPC); assay: Checkerboard assay (MIC, FICI); details: 650
Procedure: as §1

[17] = system: K. pneumoniae 492(mcr-1、blaNDM); assay: Checkerboard assay (MIC, FICI); details: 492
Procedure: as §1

[18] = system: K. pneumoniae 57(mcr-9、blaNDM); assay: Checkerboard assay (MIC, FICI); details: 57
Procedure: as §1

[19] = system: E. coli BW25113-pmrBR93P(pmrB); assay: Checkerboard assay (MIC, FICI); details: BW25113-pmrBR93P
Procedure: as §1

[20] = system: E. coli 13f4(mcr-1); assay: Checkerboard assay (MIC, FICI); details: 13f4
Procedure: as §1

[21] = system: E. coli pHSG299-mcr-3; assay: Checkerboard assay (MIC, FICI); details: pHSG299-mcr-3
Procedure: as §1

[22] = system: E. coli BW25113-pmrAD82N(pmrA); assay: Checkerboard assay (MIC, FICI); details: BW25113-pmrAD82N
Procedure: as §1

[23] = system: S. Typhimurium ATCC 14028; assay: Checkerboard assay (MIC, FICI); details: 14028
Procedure: as §1

[24] = system: K. pneumoniae 667(phoP、pmrA、blaKPC); assay: Checkerboard assay (MIC, FICI); details: 667
Procedure: as §1

[25] = system: P. aeruginosa 9(mcr-1); assay: Checkerboard assay (MIC, FICI); details: P. aeruginosa 9
Procedure: as §1

[26] = system: K. pneumoniae, E. coli, Salmonella, P. aeruginosa, and A. baumannii; assay: Checkerboard assay, panel of tested strains (summary statements); details: with β,β-Dim; summary over tested strains
Procedure: as §1

colistin
bacterial growth (growth curves) [1]: neither β,β-Dim (4 µg/mL) nor colistin (0.5 µg/mL) alone inhibited the growth
MIC of colistin ([2]; alone): 16 µg/mL
Potentation ([2]; fold drop of colistin MIC): 64
MIC of colistin [combination] ([2]; with β,β-Dim): 0.25 µg/mL
MIC of colistin ([3]; alone): 4 µg/mL
Potentation ([3]; fold drop of colistin MIC): 8
MIC of colistin [combination] ([3]; with β,β-Dim): 0.5 µg/mL
MIC of colistin ([4]; alone): 64 µg/mL
Potentation ([4]; fold drop of colistin MIC): 256
MIC of colistin [combination] ([4]; with β,β-Dim): 0.25 µg/mL
MIC of colistin ([5]; alone): 1 µg/mL
Potentation ([5]; fold drop of colistin MIC): 2
MIC of colistin [combination] ([5]; with β,β-Dim): 0.5 µg/mL
MIC of colistin ([6]; alone): 16 µg/mL
Potentation ([6]; fold drop of colistin MIC): 8
MIC of colistin [combination] ([6]; with β,β-Dim): 2 µg/mL
MIC of colistin ([7]; alone): 64 µg/mL
Potentation ([7]; fold drop of colistin MIC): 64
MIC of colistin [combination] ([7]; with β,β-Dim): 1 µg/mL
MIC of colistin ([8]; alone): 4 µg/mL
Potentation ([8]; fold drop of colistin MIC): 4
MIC of colistin [combination] ([8]; with β,β-Dim): 1 µg/mL
MIC of colistin ([9]; alone): 0.5 µg/mL
Potentation ([9]; fold drop of colistin MIC): 4
MIC of colistin [combination] ([9]; with β,β-Dim): 0.125 µg/mL
MIC of colistin ([10]; alone): 0.125 µg/mL
Potentation ([10]; fold drop of colistin MIC): 4
MIC of colistin [combination] ([10]; with β,β-Dim): 0.0313 µg/mL
MIC of colistin ([11]; alone): 0.125 µg/mL
Potentation ([11]; fold drop of colistin MIC): 4
MIC of colistin [combination] ([11]; with β,β-Dim): 0.0313 µg/mL
MIC of colistin ([12]; alone): > 512 µg/mL
Potentation ([12]; fold drop of colistin MIC): 1024
MIC of colistin [combination] ([12]; with β,β-Dim): 0.5 µg/mL
MIC of colistin ([13]; alone): 0.5 µg/mL
Potentation ([13]; fold drop of colistin MIC): 64
MIC of colistin [combination] ([13]; with β,β-Dim): 0.0078 µg/mL
MIC of colistin ([14]; alone): 512 µg/mL
Potentation ([14]; fold drop of colistin MIC): 1024
MIC of colistin [combination] ([14]; with β,β-Dim): 0.5 µg/mL
MIC of colistin ([15]; alone): 4 µg/mL
Potentation ([15]; fold drop of colistin MIC): 8
MIC of colistin [combination] ([15]; with β,β-Dim): 0.5 µg/mL
MIC of colistin ([16]; alone): 32 µg/mL
Potentation ([16]; fold drop of colistin MIC): 16
MIC of colistin [combination] ([16]; with β,β-Dim): 2 µg/mL
MIC of colistin ([17]; alone): 4 µg/mL
Potentation ([17]; fold drop of colistin MIC): 32
MIC of colistin [combination] ([17]; with β,β-Dim): 0.125 µg/mL
MIC of colistin ([18]; alone): 2 µg/mL
Potentation ([18]; fold drop of colistin MIC): 32
MIC of colistin [combination] ([18]; with β,β-Dim): 0.0625 µg/mL
MIC of colistin ([19]; alone): 8 µg/mL
Potentation ([19]; fold drop of colistin MIC): 32
MIC of colistin [combination] ([19]; with β,β-Dim): 0.25 µg/mL
MIC of colistin ([20]; alone): 4 µg/mL
Potentation ([20]; fold drop of colistin MIC): 4
MIC of colistin [combination] ([20]; with β,β-Dim): 1 µg/mL
MIC of colistin ([21]; alone): 2 µg/mL
Potentation ([21]; fold drop of colistin MIC): 16
MIC of colistin ([22]; alone): 16 µg/mL
Potentation ([22]; fold drop of colistin MIC): 32
MIC of colistin [combination] ([22]; with β,β-Dim): 0.5 µg/mL
MIC of colistin ([23]; alone): 1 µg/mL
Potentation ([23]; fold drop of colistin MIC): 2
MIC of colistin [combination] ([23]; with β,β-Dim): 0.5 µg/mL
MIC of colistin ([24]; alone): 64 µg/mL
Potentation ([24]; fold drop of colistin MIC): 128
MIC of colistin [combination] ([24]; with β,β-Dim): 0.5 µg/mL
MIC of colistin ([25]; alone): 4 µg/mL
Potentation ([25]; fold drop of colistin MIC): 8
MIC of colistin [combination] ([25]; with β,β-Dim): 0.5 µg/mL
colistin MIC in combination [26]: ≤ 2 µg/mL
reduction of colistin MIC [26]: 4–1024 fold
